# Numbers after ± are expanded uncertainties.
# Conditions: 283.15 K, Liquid, Vibrating tube method
smiles,measurement,setting,value
CCCCCC(=O)OCC(COC(=O)CCCCC)(COC(=O)CCCCC)COC(=O)CCCCC [pentaerythritol tetrahexanoate],mass density,1506.3 kPa,1004.9 ± 1.2 kg/m3
same,mass density,1520.4 kPa,1005.1 ± 1.2 kg/m3
same,mass density,1534.6 kPa,1005.1 ± 1.2 kg/m3
same,mass density,1551.6 kPa,1005.1 ± 1.2 kg/m3
same,mass density,1566 kPa,1005.2 ± 1.2 kg/m3
same,mass density,1580.3 kPa,1005 ± 1.2 kg/m3
same,mass density,1737.7 kPa,1005.1 ± 1.2 kg/m3
same,mass density,1752.5 kPa,1005.1 ± 1.2 kg/m3
same,mass density,1815.1 kPa,1005.3 ± 1.2 kg/m3
same,mass density,1862 kPa,1005.2 ± 1.2 kg/m3
same,mass density,1876.2 kPa,1005.2 ± 1.2 kg/m3
same,mass density,1889.8 kPa,1005.2 ± 1.2 kg/m3
same,mass density,1905.4 kPa,1005.1 ± 1.2 kg/m3
same,mass density,1918.9 kPa,1005.2 ± 1.2 kg/m3
same,mass density,1932.5 kPa,1005.2 ± 1.2 kg/m3
same,mass density,1949.3 kPa,1005.2 ± 1.2 kg/m3
same,mass density,1963.5 kPa,1005.2 ± 1.2 kg/m3
same,mass density,1978.6 kPa,1005.2 ± 1.2 kg/m3
same,mass density,1993.5 kPa,1005.3 ± 1.2 kg/m3
same,mass density,2005.3 kPa,1005.3 ± 1.2 kg/m3
same,mass density,2024.6 kPa,1005.3 ± 1.2 kg/m3
same,mass density,2039 kPa,1005.3 ± 1.2 kg/m3
same,mass density,2053.8 kPa,1005.3 ± 1.2 kg/m3
same,mass density,2068.7 kPa,1005.3 ± 1.2 kg/m3
same,mass density,2086.4 kPa,1005.3 ± 1.2 kg/m3
same,mass density,2102 kPa,1005.4 ± 1.2 kg/m3
same,mass density,2118 kPa,1005.4 ± 1.2 kg/m3
same,mass density,2136.7 kPa,1005.4 ± 1.2 kg/m3
same,mass density,2153 kPa,1005.4 ± 1.2 kg/m3
same,mass density,2165.7 kPa,1005.4 ± 1.2 kg/m3
same,mass density,2185.6 kPa,1005.4 ± 1.2 kg/m3
same,mass density,2205.4 kPa,1005.4 ± 1.2 kg/m3
same,mass density,2292.8 kPa,1005.5 ± 1.2 kg/m3
same,mass density,2303.8 kPa,1005.5 ± 1.2 kg/m3
same,mass density,2314.9 kPa,1005.4 ± 1.2 kg/m3
same,mass density,2328.2 kPa,1005.4 ± 1.2 kg/m3
same,mass density,2339.2 kPa,1005.5 ± 1.2 kg/m3
same,mass density,2350.1 kPa,1005.5 ± 1.2 kg/m3
same,mass density,2363.3 kPa,1005.4 ± 1.2 kg/m3
same,mass density,2374.2 kPa,1005.4 ± 1.2 kg/m3
same,mass density,2385.1 kPa,1005.4 ± 1.2 kg/m3
same,mass density,2398.1 kPa,1005.5 ± 1.2 kg/m3
same,mass density,2409.2 kPa,1005.6 ± 1.2 kg/m3
same,mass density,2420.2 kPa,1005.6 ± 1.2 kg/m3
same,mass density,2433.2 kPa,1005.5 ± 1.2 kg/m3
same,mass density,2443.9 kPa,1005.6 ± 1.2 kg/m3
same,mass density,2455 kPa,1005.6 ± 1.2 kg/m3
same,mass density,2468.4 kPa,1005.6 ± 1.2 kg/m3
same,mass density,2479.7 kPa,1005.6 ± 1.2 kg/m3
same,mass density,2490.8 kPa,1005.5 ± 1.2 kg/m3
same,mass density,2502 kPa,1005.6 ± 1.2 kg/m3
same,mass density,2515.9 kPa,1005.6 ± 1.2 kg/m3
same,mass density,2526.8 kPa,1005.5 ± 1.2 kg/m3
same,mass density,2552.3 kPa,1005.6 ± 1.2 kg/m3
same,mass density,2576.1 kPa,1005.6 ± 1.2 kg/m3
same,mass density,2587.9 kPa,1005.7 ± 1.2 kg/m3
same,mass density,2601.9 kPa,1005.7 ± 1.2 kg/m3
same,mass density,2613.9 kPa,1005.7 ± 1.2 kg/m3
same,mass density,2626 kPa,1005.6 ± 1.2 kg/m3
same,mass density,2640.3 kPa,1005.7 ± 1.2 kg/m3
same,mass density,2652.7 kPa,1005.6 ± 1.2 kg/m3
same,mass density,2664.9 kPa,1005.8 ± 1.2 kg/m3
same,mass density,2679.3 kPa,1005.7 ± 1.2 kg/m3
same,mass density,2692.1 kPa,1005.6 ± 1.2 kg/m3
same,mass density,2704.8 kPa,1005.7 ± 1.2 kg/m3
same,mass density,2717.4 kPa,1005.8 ± 1.2 kg/m3
same,mass density,2732.7 kPa,1005.8 ± 1.2 kg/m3
same,mass density,2745.7 kPa,1005.8 ± 1.2 kg/m3
same,mass density,2756.3 kPa,1005.7 ± 1.2 kg/m3
same,mass density,2768.9 kPa,1005.7 ± 1.2 kg/m3
same,mass density,2784.7 kPa,1005.7 ± 1.2 kg/m3
same,mass density,2800 kPa,1005.8 ± 1.2 kg/m3
same,mass density,2826.3 kPa,1005.9 ± 1.2 kg/m3
same,mass density,2841.9 kPa,1005.7 ± 1.2 kg/m3
same,mass density,2869.2 kPa,1005.8 ± 1.2 kg/m3
same,mass density,2883.2 kPa,1005.8 ± 1.2 kg/m3
same,mass density,2897.6 kPa,1005.8 ± 1.2 kg/m3
same,mass density,2911.3 kPa,1005.7 ± 1.2 kg/m3
same,mass density,2927.9 kPa,1005.8 ± 1.2 kg/m3
same,mass density,2942 kPa,1005.9 ± 1.2 kg/m3
same,mass density,2956 kPa,1005.9 ± 1.2 kg/m3
same,mass density,2973 kPa,1005.9 ± 1.2 kg/m3
same,mass density,2987.2 kPa,1005.9 ± 1.2 kg/m3
same,mass density,3001.4 kPa,1005.9 ± 1.2 kg/m3
same,mass density,3015.3 kPa,1005.8 ± 1.2 kg/m3
same,mass density,3032.1 kPa,1005.8 ± 1.2 kg/m3
same,mass density,3046.9 kPa,1005.9 ± 1.2 kg/m3
same,mass density,3061.4 kPa,1005.9 ± 1.2 kg/m3
same,mass density,3079.7 kPa,1005.7 ± 1.2 kg/m3
same,mass density,3094.3 kPa,1006 ± 1.2 kg/m3
same,mass density,3108.7 kPa,1005.9 ± 1.2 kg/m3
same,mass density,3123.8 kPa,1006 ± 1.2 kg/m3
same,mass density,3141.8 kPa,1006 ± 1.2 kg/m3
same,mass density,3157 kPa,1006 ± 1.2 kg/m3
same,mass density,3172.3 kPa,1006 ± 1.2 kg/m3
same,mass density,3187.9 kPa,1005.9 ± 1.2 kg/m3
same,mass density,3203.2 kPa,1006 ± 1.2 kg/m3
same,mass density,3221.5 kPa,1005.9 ± 1.2 kg/m3
same,mass density,3236.8 kPa,1006.1 ± 1.2 kg/m3
same,mass density,3337.6 kPa,1006.1 ± 1.2 kg/m3
same,mass density,3353.6 kPa,1006.1 ± 1.2 kg/m3
same,mass density,3404.7 kPa,1006.2 ± 1.2 kg/m3
same,mass density,3956.5 kPa,1006.4 ± 1.2 kg/m3
same,mass density,3974.5 kPa,1006.6 ± 1.2 kg/m3
same,mass density,3996.3 kPa,1006.6 ± 1.2 kg/m3
same,mass density,4014.4 kPa,1006.5 ± 1.2 kg/m3
same,mass density,4032.7 kPa,1006.5 ± 1.2 kg/m3
same,mass density,4054 kPa,1006.5 ± 1.2 kg/m3
same,mass density,4072 kPa,1006.5 ± 1.2 kg/m3
same,mass density,4090 kPa,1006.6 ± 1.2 kg/m3
same,mass density,4111.5 kPa,1006.5 ± 1.2 kg/m3
same,mass density,4129.7 kPa,1006.7 ± 1.2 kg/m3
same,mass density,4147.7 kPa,1006.6 ± 1.2 kg/m3
same,mass density,4165.7 kPa,1006.5 ± 1.2 kg/m3
same,mass density,4186.7 kPa,1006.6 ± 1.2 kg/m3
same,mass density,4204.2 kPa,1006.6 ± 1.2 kg/m3
same,mass density,4221.8 kPa,1006.7 ± 1.2 kg/m3
same,mass density,4239.5 kPa,1006.7 ± 1.2 kg/m3
same,mass density,4260.6 kPa,1006.6 ± 1.2 kg/m3
same,mass density,4277.8 kPa,1006.6 ± 1.2 kg/m3
same,mass density,4294.9 kPa,1006.7 ± 1.2 kg/m3
same,mass density,4314.8 kPa,1006.6 ± 1.2 kg/m3
same,mass density,4331.6 kPa,1006.6 ± 1.2 kg/m3
same,mass density,4348.2 kPa,1006.7 ± 1.2 kg/m3
same,mass density,4364.2 kPa,1006.7 ± 1.2 kg/m3
same,mass density,4383.5 kPa,1006.7 ± 1.2 kg/m3
same,mass density,4399.6 kPa,1006.7 ± 1.2 kg/m3
same,mass density,4414.7 kPa,1006.7 ± 1.2 kg/m3
same,mass density,4432.7 kPa,1006.6 ± 1.2 kg/m3
same,mass density,4448.3 kPa,1006.8 ± 1.2 kg/m3
same,mass density,4462.4 kPa,1006.6 ± 1.2 kg/m3
same,mass density,4476.2 kPa,1006.7 ± 1.2 kg/m3
same,mass density,4489.5 kPa,1006.7 ± 1.2 kg/m3
same,mass density,4504.9 kPa,1006.8 ± 1.2 kg/m3
same,mass density,4517.6 kPa,1006.8 ± 1.2 kg/m3
same,mass density,4530.4 kPa,1006.7 ± 1.2 kg/m3
same,mass density,4542.7 kPa,1006.7 ± 1.2 kg/m3
same,mass density,4556.9 kPa,1006.8 ± 1.2 kg/m3
same,mass density,4568.3 kPa,1006.8 ± 1.2 kg/m3
same,mass density,4579.5 kPa,1006.7 ± 1.2 kg/m3
same,mass density,4590.6 kPa,1006.8 ± 1.2 kg/m3
same,mass density,4604.1 kPa,1006.8 ± 1.2 kg/m3
same,mass density,4613.3 kPa,1006.9 ± 1.2 kg/m3
same,mass density,4626.1 kPa,1006.8 ± 1.2 kg/m3

# — the NIST ThermoML archive (doi:10.1021/je060271a)
